Test results from ChEMBL document CHEMBL5137049, “Discovery of a Novel Small-Molecule Inhibitor Disrupting TRBP-Dicer Interaction against Hepatocellular Carcinoma via the Modulation of microRNA Biogenesis” (J Med Chem, 2022).
Activity calls are given as the source filed them. The rule behind the calls is not given here.

What was measured:
SK-HEP1 [1] = test: Downregulation of miR-135 expression in human SK-HEP1 cells at 10 uM by qRT-PCR analysis; format: functional, cell-based
[2] = molecular target: T1, Programmed cell death protein 4 (Homo sapiens) (UniProt Q53EL6); test: Inhibition of PDCD4 in human HeLa cells tranfected with pCI-neo-luciferase-PDCD4 3'-UTR plasmid assessed as fold change in luciferase signal by measuring relative luciferase unit by luciferase reporter assay; format: cell-based
T1 sequence (whole entry): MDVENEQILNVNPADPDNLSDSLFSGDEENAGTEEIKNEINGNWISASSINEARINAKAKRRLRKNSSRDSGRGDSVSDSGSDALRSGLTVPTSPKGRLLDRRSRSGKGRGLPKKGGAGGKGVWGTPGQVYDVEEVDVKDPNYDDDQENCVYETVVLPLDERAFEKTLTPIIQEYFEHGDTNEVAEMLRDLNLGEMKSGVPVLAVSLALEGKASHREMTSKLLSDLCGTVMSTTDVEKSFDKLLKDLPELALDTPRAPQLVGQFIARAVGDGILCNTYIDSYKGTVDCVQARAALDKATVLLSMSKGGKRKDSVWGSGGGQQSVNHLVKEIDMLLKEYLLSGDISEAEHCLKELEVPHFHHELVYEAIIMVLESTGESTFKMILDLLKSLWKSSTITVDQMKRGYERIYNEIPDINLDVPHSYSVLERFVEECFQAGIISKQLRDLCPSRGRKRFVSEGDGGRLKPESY

HeLa [3] = test: Upregulation of pri-miR-155 in human HeLa cells at 10 uM incubated for 6 hrs by qRT-PCR analysis; format: functional, cell-based
HepG2 [4] = test: Downregulation of miR-221 expression in human HepG2 cells at 10 uM incubated for 6 hrs by qRT-PCR analysis; format: functional
SK-HEP1 [5] = test: Downregulation of beta-catenin expression level in TRBP siRNA transfected human SK-HEP1 cells incubated for 48 hrs by Western blotting analysis; format: functional, cell-based
Mus musculus = test: Downregulation of beta-catenin expression in liver of SCID mouse xenografted with human SK-HEP1 cells at 10 to 50 mg/kg, ip administered every 2 days for 4 weeks by immunohistochemical staining analysis; format: functional, organism-based; conditions: dose 10-50 mg/kg
HCCLM3 [6] = test: Inhibition of cell migration in human HCLLM3 cells at 1 to 25 uM measured after 24 hrs by crystal violet staining based transwell assay; format: functional; conditions: dose 1-25 µM
[7] = Inhibition of microRNA in human HeLa cells transfected with pCI-neo-luciferase-miR-21 plasmid assessed as change in luciferase signal incubated for 24 hrs by luciferase reporter assay; format: cell-based
HeLa [8] = test: Upregulation of pre-miR-155 in human HeLa cells at 10 uM incubated for 6 hrs by qRT-PCR analysis; format: functional, cell-based
HeLa [9] = test: Upregulation of pri-miR-21 in human HeLa cells at 10 uM incubated for 6 hrs by qRT-PCR analysis; format: functional, cell-based
SK-HEP1 [10] = test: Downregulation of mature miR-21 expression in human SK-HEP1 cells at 10 uM incubated for 24 hrs; format: functional, cell-based
Homo sapiens = species: Homo sapiens; test: Effect on PACT-Dicer interaction (unknown origin) assessed as increase in binding of PACT to Dicer at 1 to 25 uM by Western blotting analysis; conditions: dose 1-25 µM
HepG2 [11] = test: Upregulation of pre-miR-221 in human HepG2 cells at 10 uM incubated for 6 hrs by qRT-PCR analysis; format: functional, cell-based
[12] = Acute toxicity in KM mouse assessed as effect on liver at 100 mg/kg, ip administered for 7 consecutive days by hematoxyin-eosin staining based analysis; format: organism-based; conditions: in vivo, 168 h, time 7 day
[13] = Acute toxicity in KM mouse assessed as effect on heart at 100 mg/kg, ip administered for 7 consecutive days by hematoxyin-eosin staining based analysis; format: organism-based; conditions: in vivo, 168 h, time 7 day
HeLa [14] = test: Downregulation of miR-155 expression in human HeLa cells at 10 uM incubated for 6 hrs by qRT-PCR analysis; format: functional
HCCLM3 [15] = test: Inhibition of cell migration in human HCCLM3 cells assessed as reduction of cell mobility at 1 to 25 uM measured at 24 hrs by well scratch method; format: functional, cell-based; conditions: dose 1-25 µM
SK-HEP1 [16] = test: Downregulation of ZEB2 expression in human SK-HEP1 cells at 1 to 25 uM by Western blotting analysis; format: functional, cell-based; conditions: dose 1-25 µM
SK-HEP1 [17] = test: Upregulation of let-7 expression in human SK-HEP1 cells at 10 uM by qRT-PCR analysis; format: functional, cell-based
HeLa [18] = test: Downregulation of miR-21 expression in human HeLa cells at 10 uM incubated for 6 hrs by qRT-PCR analysis; format: functional
SK-HEP1 [19] = test: Downregulation of N-cadherin expression level in TRBP siRNA transfected human SK-HEP1 cells incubated for 48 hrs by Western blotting analysis; format: functional, cell-based
MHCC97-L [20] = test: Inhibition of cell migration in human MHCC97-L cells assessed as reduction of cell mobility at 1 to 25 uM measured at 24 hrs by well scratch method; format: functional, cell-based; conditions: dose 1-25 µM
SK-HEP1 [21] = test: Downregulation of vimentin expression level in TRBP siRNA transfected human SK-HEP1 cells incubated for 48 hrs by Western blotting analysis; format: functional, cell-based
MHCC97-L [22] = test: Inhibition of cell migration in human MHCC97-L cells at 1 to 25 uM measured after 24 hrs by crystal violet staining based transwell assay; format: functional; conditions: dose 1-25 µM
MHCC97-L [23] = test: Antitumor activity against human MHCC97-L cells xenografted in SCID mouse assessed as reduction in tumor proliferation at 10 to 50 mg/kg, ip administered every 2 days for 4 weeks; format: functional, organism-based; conditions: dose 10-50 mg/kg
SK-HEP1 [24] = test: Downregulation of N-cadherin expression in human SK-HEP1 cells at 1 to 25 uM by Western blot analysis; format: functional, cell-based; conditions: dose 1-25 µM
SK-HEP1 [25] = test: Downregulation of RHOB expression in human SK-HEP1 cells at 1 to 25 uM by Western blotting analysis; format: functional, cell-based; conditions: dose 1-25 µM
[26] = Acute toxicity in KM mouse assessed as effect on brain at 100 mg/kg, ip administered for 7 consecutive days by hematoxyin-eosin staining based analysis; format: organism-based; conditions: in vivo, 168 h, time 7 day
MHCC97-L [27] = test: Downregulation of miR-18a expression in human MHCC97-L cells at 10 uM by qRT-PCR analysis; format: functional, cell-based
MHCC97-L [28] = test: Upregulation of let-7 expression in human MHCC97-L cells at 10 uM by qRT-PCR analysis; format: functional, cell-based
[29] = Inhibition of TRBP (unknown origin) - recombinant Dicer (unknown origin) protein-protein interaction incubated for 3 hrs by GST pull-down assay; parameters: species or system Homo sapiens
[30] = Toxicity in SCID mouse xenografted with human MHCC97-L cells assessed as effect on kidney at 10 to 50 mg/kg, ip administered every 2 days for 4 weeks by hematoxyin-eosin staining based analysis; format: organism-based; conditions: in vivo, 672 h, dose 10-50 mg/kg
SK-HEP1 [31] = test: Upregulation of TIMP4 expression in human SK-HEP1 cells at 1 to 25 uM by Western blotting analysis; format: functional, cell-based; conditions: dose 1-25 µM
HepG2 [32] = test: Upregulation of pre-miR-21 in human HepG2 cells at 10 uM incubated for 6 hrs by qRT-PCR analysis; format: functional, cell-based
SK-HEP1 [33] = test: Downregulation of SUV39H1 expression in human SK-HEP1 cells at 1 to 25 uM by Western blotting analysis; format: functional, cell-based; conditions: dose 1-25 µM

CCOC(=O)c1nc(-c2ccc(OC)cc2)oc1C
Activity (SK-HEP1 [1]): Active
RLU [2]: 2.13
Activity (HeLa [3]): Active
Activity (HepG2 [4]): 60%
Activity (SK-HEP1 [5]): Active
Activity (Mus musculus): Active
inhibition (HCCLM3 [6]): Active
EC50 [7]: 1.38 µM
Activity (HeLa [8]): Active
Activity (HeLa [9]): Active
Activity (SK-HEP1 [10]): Active
Activity (Homo sapiens): Active
Activity (HepG2 [11]): Active
Activity [12]: Non-Toxic
Activity [13]: Non-Toxic
Activity (HeLa [14]): 60%
inhibition (HCCLM3 [15]): Active
Activity (SK-HEP1 [16]): Active
Activity (SK-HEP1 [17]): Active
Activity (HeLa [18]): 60%
Activity (SK-HEP1 [19]): Active
inhibition (MHCC97-L [20]): Active
Activity (SK-HEP1 [21]): Active
inhibition (MHCC97-L [22]): Active
Activity (MHCC97-L [23]): Active
Activity (SK-HEP1 [24]): Active
Activity (SK-HEP1 [25]): Active
Activity [26]: Non-Toxic
Activity (MHCC97-L [27]): Active
Activity (MHCC97-L [28]): Active
IC50 [29]: 12.3 µM
Activity [30]: Non-Toxic
Activity (SK-HEP1 [31]): Active
Activity (HepG2 [32]): Active
Activity (SK-HEP1 [33]): Active
